Data: patent publication US20030082200A1, “52 kda protein from coagulase negative staphylococci and fragments thereof” (priority 2000, published 2003)

What was measured:
16 kDa protein of BD5703 = assay: Autoradiograph inhibition test: labeled Vn binding to blotted surface proteins; set-up: species or system Staphylococcus epidermidis; conditions: competing proteins 10 μg/ml; heparin, hyaluronic acid 1 mg/ml; autoradiography
Description: (§1) SDS-PAGE was performed on mini-Protean II cell (Bio-Rad, Richmond, Calif.) as previously described (16). The bacterial surface structures were extracted by 1M lithium chloride (pH 5) with protease inhibitor (Boehringer Mannheim, Mannheim, Germany) at 37° C. for 2 hours with end to end rotation. Extract was subjected to homogenous gel (12%) or gradient gel (4-15%) electrophoresis. The running and transfer conditions were as previously described (17).
(§2) The PDVF membranes (Micron Separations INC., Westborough, USA) were saturated with incubation in blocking buffers I and II (buffer I containing 0.6% ethanolamine, 0.9% glycine, 1% polyvinylpyrrolidone and 25% methanol pH 9.6; buffer II containing 0.6% ethanolamine, 0.9% glycine, 0.05% gelatin hydrolysate and 0.125% Tween 20 pH 9.6) for 15 min respectively (18). Saturated membranes were rinsed three times in PBST (PBS with 1% Tween 20). Then, the membranes were incubated with ^125I-labeled Vn (0.4 μg/ml) in PBST or in PBST supplemented with 1.05 M sodium chloride (final sodium chloride concentration 1.2M) overnight at 20° C. The membranes were washed and dried, then examined by autoradiography with X-Omat AR film (Eastman Kodak) after 3 days storage at −70° C.
(§3) For inhibition tests, the membrane with retained bacterial surface molecules was cut to individual strips, and then incubated with labeled Vn (0.4 μg/ml) in PBST mixed with different unlabeled competing molecules, including Vn (10 μg/ml), fibronectin (10 μg/ml), fibrinogen (10μg/ml), thrombospondin ([…]), plasminogen (10 μg/ml), human immunoglobulins (10 μg/ml), hemopexin (10 μg/ml), heparin (1 mg/ml). In a separate experiment, the strips were preincubated with heparin (1 mg/ml) and hyaluronic acid (1 mg/ml) for 1 hour at 20° C. prior to adding labeled Vn.

38 kDa protein of BD5703 = assay: as above; set-up: species or system Staphylococcus epidermidis; conditions: competing proteins 10 μg/ml; heparin, hyaluronic acid 1 mg/ml; autoradiography
Description: as §1, §2, §3

52 kDa protein of BD5703 = assay: as above; set-up: species or system Staphylococcus epidermidis; conditions: competing proteins 10 μg/ml; heparin, hyaluronic acid 1 mg/ml; autoradiography
Description: as §1, §2, §3

[1] = test system: immobilized Vn binding to S. epidermidis strain BD5703; assay: Inhibition test: binding of 3H-labeled bacteria to Vn coated wells; assay type: cell-based, Staphylococcus epidermidis; conditions: for Effect on BD5703 binding of immobilized Vn (in words): component added at the same time as bacteria
Description: (§4) ^3H-labeled bacteria were used for these tests. In brief, half a milliliter of an overnight cultured bacteria in TH broth was diluted in 5 ml TH broth containing 50 μCi of [methyl-^3H]thymidine (Amersham Plc., Buckinghamshire, UJK) and cultured for 5 hours at 37° C. on a gyrator shaker with vigorous agitation.
In another experiment, 50 μl bacteria (2×10^7cfu/ml) were mixed with the same volume of four mono-carbohydrates (0.1M D-fucose, 0.1M D-galactose, 0.1M D-glucose and 0.1M D-mannose), heparin (2 mg/ml), hyaluronic acid (2 mg/ml) or Vn (20 μg/ml). These mixtures with bacteria were incubated for 1 hour at 37° C. Heparin sodium salt and hyaluronic acid were purchased from Fluka Chemie AG, Buchs, Switzerland)
(§5) Finally, all wells were washed by PBS 5 times, individual wells were removed and immersed in 2.5 ml scintillation fluid (BDH chemicals, Pool, UK) and the radioactivity was counted in a liquid scintillation counter (Beckman Instruments, Fullerton, Calif., USA). Quantitation of relative binding percentage was achieved by the radioactivity from experimental groups in relation to the radioactivity from non-treated group.

BD5703 surface proteins = assay: Autoradiograph inhibition test: labeled Vn binding to blotted surface proteins; set-up: species or system Staphylococcus epidermidis; conditions: unlabeled Vn 10 μg/ml; autoradiography
Description: as §1, §2, §3

S. aureus strain V8 = assay: Bacterial binding of soluble 125I-labeled Vn; set-up: species or system Staphylococcus aureus; conditions: reference strain V8
Description: (§6) Fifty micrograms of Vn was labeled with Na ^125I (Amersham Plc., Buckinghamshire, UK) using the modified chloramine-T method (specificity, 1×10^6 cpm/μg), and used in a minor modified soluble binding test with final reaction volume of 150 μl in PBS (15). During binding experiments, radiolabeled protein were diluted to approx. 0.025 μg (25,000cpm) and incubated with bacteria (10^9 cells per test tube). In an alternative method, cells of BD5703 were immobilized on ELISA plates (Costar Co., Cambridge, USA) by incubating 100 μl of bacterial suspension (2×10^7 cells in PBS) for 30 min at 37° C. Non-attached bacteria were removed by 3 washes with PBS. The remaining sites on the plastic were blocked by 2%, a bovine serum albumin in PBS (BSA-PBS) for 1 hour at 37° C. The wells were washed with PBS, and two-fold diluted ^125I-labeled Vn in 1% BSA-PBS (maximally 5 μg/ml) was added. Wells coated with 1% BSA served as background. After incubation at 37° C. for 45 min and washes with PBS, individual wells were removed and the radioactivity was measured in a gamma counter (LKB-Wallac, Turku, Finland).

[2] = test system: S. epidermidis strain BD5703; assay: Bacterial binding of soluble 125I-labeled Vn; set-up: species or system Staphylococcus epidermidis; conditions: less than 5% is considered as negative binding
Description: as §6

[3] = test system: immobilized S. epidermidis strain BD5703; assay: Binding of soluble 125I-labeled Vn to cells immobilized on ELISA plate wells; set-up: species or system Staphylococcus epidermidis; conditions: two-fold diluted 125I-Vn, maximally 5 μg/ml; FIG. 1
Description: as §6

S. epidermidis BD5703 = assay: Proteolytic treatment of bacterial cells, binding of immobilized Vn; assay type: cell-based, Staphylococcus epidermidis; conditions: BD5703 cells treated with protease; non-treated control = 100
Description: as §4
(§7) 3H-labeled bacteria cells (5×10^8) were suspended in 1 ml PBS heated at 100° C. for 30 min and rapidly cooled. The same amount of bacteria was treated by pronase E, protease K and trypsin (Sigma Chemical Co., St. Louis, USA) as previously described (15). After washes in PBS, 100 μl (1×10^7 cells) treated bacterial suspension were added into the Vn coated wells.
as §5

S. aureus V8 = assay: as above; assay type: cell-based, Staphylococcus aureus; conditions: V8 cells treated with protease; non-treated control = 100
Description: as §4, §7, §5

immobilized Vn = assay: Trypsin treatment of Vn-coated wells, binding assay with 3H labeled bacteria; assay type: cell-based; conditions: trypsin 2 μg/well, 37° C. for 2 hours
Description: The wells pre-adsorbed with Vn were trypsinized at a concentration of 2 μg/well in PBS with 1 mM CaCl2 (37° C. for 2 hours) following an additional incubation with soybean trypsin inhibitor (4 μg/well) at 37° C. for 30 min in same buffer (15). The wells were then blocked by BSA and subjected to binding assay with ^3H labeled bacteria.

21 kDa protein of BD5703 = assay: Autoradiograph inhibition test: labeled Vn binding to blotted surface proteins; set-up: species or system Staphylococcus epidermidis; conditions: competing proteins 10 μg/ml; heparin, hyaluronic acid 1 mg/ml; autoradiography
Description: as §1, §2, §3

[4] = test system: immobilized Vn binding to S. epidermidis strain BD5703; assay: Inhibition test: binding of 3H-labeled bacteria to Vn coated wells; assay type: cell-based, Staphylococcus epidermidis
[5] = inhibitor 1 mg/ml, added at the same time as bacteria

Row | Compound | Inhibition of labeled Vn binding to the 16 kDa band (16 kDa protein of BD5703) | Inhibition of labeled Vn binding to the 38 kDa band (38 kDa protein of BD5703) | Inhibition of labeled Vn binding to the 52 kDa band (52 kDa protein of BD5703) | Effect on BD5703 binding of immobilized Vn (in words) [1] | other results
1 | fibronectin | slightly blocked | slightly blocked | slightly blocked | – | –
2 | C[C@@H](O)[C@H](O)[C@H](O)[C@@H](O)C=O [D-fucose] | – | – | – | not by carbohydrates | –
3 | Soluble Vn: human vitronectin, purified; glycoprotein; also used 125I-labeled | – | – | – | – | Relative binding percentage ([1]; inhibitor 10 μg/ml, added at the same time as bacteria, control without inhibitor = 100): 40%; Inhibition of binding of immobilized Vn ([1]; soluble Vn added with bacteria): about 60%; Inhibition of binding of labeled Vn to BD5703 surface proteins (BD5703 surface proteins): could be inhibited; Level of binding of radioactively labeled Vn in solution (S. aureus strain V8): 14.2%; Level of binding of radioactively labeled Vn in solution [2]: more than 5%; Binding of 125I-Vn to immobilized cells [3]: dose-related manner
4 | hyaluronic acid | – | inhibited | inhibited | reduced significantly | Relative binding percentage [1, 5]: 41%
5 | Trypsin | – | – | – | – | Relative percentage binding of immobilized Vn (S. epidermidis BD5703): 67%; Relative percentage binding of immobilized Vn (S. aureus V8): 70%; Bacterial binding after trypsin treatment of immobilized Vn (immobilized Vn): no binding was obtained
6 | O=C[C@H](O)[C@@H](O)[C@H](O)[C@H](O)CO [D-glucose] | – | – | – | not by carbohydrates | –
7 | thrombospondin: human thrombospondin | slightly blocked | slightly blocked | slightly blocked | – | –
8 | hemopexin: human hemopexin, purified | slightly blocked | slightly blocked | slightly blocked | – | –
9 | O=C[C@H](O)[C@@H](O)[C@@H](O)[C@H](O)CO [D-galactose] | – | – | – | not by carbohydrates | –
10 | fibrinogen | slightly blocked | slightly blocked | slightly blocked | – | –
11 | Heparin sodium salt [Heparin 1] | almost erase | almost erase | almost erase | reduced significantly | Inhibitory ability compared to hyaluronic acid ([1]; added at the same time as bacteria): more than 2 fold; Relative binding percentage [1, 5]: 18%; Inhibition of labeled Vn binding to the 21 kDa band (21 kDa protein of BD5703): not 21 kDa; Effect on BD5703 binding of immobilized Vn (in words) ([4]; component preincubated with Vn coated wells): increased the binding; Relative binding percentage ([4]; inhibitor 1 mg/ml, preincubated with Vn coated wells for 2 hours, then bacteria added): 135%
12 | O=C[C@@H](O)[C@@H](O)[C@H](O)[C@H](O)CO [D-mannose] | – | – | – | not by carbohydrates | –
13 | plasminogen: human plasminogen from Sigma | slightly blocked | slightly blocked | slightly blocked | – | –
